Results reported in US9315602B2, “Method for producing olefin polymer” (Mitsui Chemicals, Inc., priority 2012, dated 2016).

What was measured:
[1] = Solubility of bridged metallocene compound in n-hexane at 25° C.; details: nitrogen atmosphere, 10 mg of catalyst
[2] = Propylene polymerization with catalyst solution (polymerization activity)
Procedure: An autoclave made of SUS and having an inner volume of 15 mL was thoroughly purged with nitrogen, and 0.4 mL (0.05 M, 20 μmol) of triisobutylaluminum and 2.7 mL of a solvent which served as a polymerization solvent and in which cyclohexane and hexane had been mixed with each other at a mixing ratio of cyclohexane:hexane=9:1 (volume ratio) were put into the autoclave. The content was stirred at 600-times rotation per minute. […]
Under a nitrogen atmosphere, 2.5 mg (molecular weight: 835.07 g/mol) of the catalyst (a) which served as a bridged metallocene compound was put into a Schlenk flask and dissolved in 5.5 mL of hexane. Then, 0.36 mL of a suspension of modified methylaluminoxane (n-hexane solvent, 4.15 M and 1.49 mmol on an aluminum atom basis) was added thereto at room temperature under stirring to prepare a catalyst solution in which the concentration of the catalyst (a) was 0.00051 M.
The catalyst solution was held at room temperature under a nitrogen atmosphere for 30 minutes, 0.2 mL (0.00051 M, 0.10 μmol) of the catalyst solution and 0.7 mL of a solvent which served as a polymerization solvent and in which cyclohexane and hexane had been mixed with each other at a mixing ratio of cyclohexane:hexane=9:1 (volume ratio) were subsequently put into the autoclave, and then the temperature was increased to 65° C. to initiate polymerization. […]

| Molecule | solubility determined from the amount of n-hexane necessary for the dissolution [1] | polymerization activity ([2]; Comparative Example 1: propylene 7 bar, 10 minutes, supernatant catalyst solution held 30 minutes, assuming catalyst concentration 0.00050 M) | polymerization activity ([2]; Example 1: propylene 7 bar, 9 minutes, catalyst solution 0.00051 M held 30 minutes, modified methylaluminoxane) |
| --- | --- | --- | --- |
| n-octyl(phenyl)methylene(cyclopentadienyl)(2,7-diphenyl-3,6-di-tert-butylfluorenyl)zirconium Dichloride [catalyst (f)] | 7.683 mmol/L | – | – |
| Benzyl(phenyl)methylene(cyclopentadienyl)(2,7-di-p-chlorophenyl-3,6-di tert-butylfluorenyl)zirconium Dichloride [catalyst (b)] | 4.098 mmol/L | – | – |
| Benzyl(p-chlorophenyl)methylene(cyclopentadienyl)(2,7-di-p-chlorophenyl-3,6-di-tert-butylfluorenyl)zirconium Dichloride [catalyst (d)] | 0.901 mmol/L | – | – |
| Benzyl(p-chlorophenyl)methylene(cyclopentadienyl)(2,7-diphenyl-3,6-di-tert-butylfluorenyl)zirconium Dichloride [catalyst (c)] | 1.585 mmol/L | – | – |
| Diphenylmethylene(cyclopentadienyl)(2,7-diphenyl-3,6-di-tert-butylfluorenyl)zirconium Dichloride [catalyst (g), reference compound] | not more than 0.211 mmol/L | 3.00 kg-PP/mmol-Zr·hr | – |
| CC(C)(C)c1cc2c3cc(C(C)(C)C)c(-c4ccccc4)cc3[c-](C(Cc3ccccc3)(Cc3ccccc3)[c-]3cccc3)c2cc1-c1ccccc1.[Cl-].[Cl-].[Zr+4] [catalyst (h), Dibenzylmethylene(cyclopentadienyl)(2,7-diphenyl-3,6-di-tert-butylfluorenyl)zirconium Dichloride, reference compound] | not more than 0.278 mmol/L | – | – |
| Methyl(p-tolyl)methylene(cyclopentadienyl)(2,7-diphenyl-3,6-di-tert-butylfluorenyl)zirconium Dichloride [catalyst (e)] | 6.221 mmol/L | – | – |
| Benzyl(phenyl)methylene(cyclopentadienyl)(2,7-diphenyl-3,6-di-tert-butylfluorenyl)zirconium Dichloride [catalyst (a)] | 1.005 mmol/L | – | 39.90 kg-PP/mmol-Zr·hr |
